The target in assay [1] is orexin-1 (Homo sapiens (Human), UniProt O43613). The assay can be described thus: Intracellular calcium measurement (FLIPR), CHO cells expressing human orexin-1 receptor, 3 nM orexin-A. The following applies: read-out: IC50 OX1. The assay is classed as cell-based. As to the method:
(§1) In Vitro Assay: Intracellular Calcium Measurements:
(§2) Chinese hamster ovary (CHO) cells expressing the human orexin-1 receptor and the human orexin-2 receptor, respectively, are grown in culture medium (Ham F-12 with L-Glutamine) containing 300 μg/mL G418, 100 U/mL penicillin, 100 μg/mL streptomycin and 10% heat inactivated fetal calf serum (FCS). The cells are seeded at 20,000 cells/well into 384-well black clear bottom sterile plates (Greiner). The seeded plates are incubated overnight at 37° C. in 5% CO2.
(§3) Human orexin-A as an agonist is prepared as 1 mM stock solution in MeOH: water (1:1), diluted in HBSS containing 0.1% bovine serum albumin (BSA), NaHCO3: 0.375 g/L and 20 mM HEPES for use in the assay at a final concentration of 3 nM.
(§4) Antagonists are prepared as 10 mM stock solution in DMSO, then diluted in 384-well plates using DMSO followed by a transfer of the dilutions into in HBSS containing 0.1% bovine serum albumin (BSA), NaHCO3: 0.375 g/L and 20 mM HEPES. On the day of the assay, 50 μL of staining buffer (HBSS containing 1% FCS, 20 mM HEPES, NaHCO3: 0.375 g/L, 5 mM probenecid (Sigma) and 3 μM of the fluorescent calcium indicator fluo-4 AM (1 mM stock solution in DMSO, containing 10% pluronic) is added to each well. The 384-well cell-plates are incubated for 50 min at 37° C. in 5% CO2 followed by equilibration at rt for 30 min before measurement.
(§5) Within the Fluorescent Imaging Plate Reader (FLIPR Tetra, Molecular Devices), antagonists are added to the plate in a volume of 10 μL/well, incubated for 120 min and finally 10 μL/well of agonist is added. Fluorescence is measured for each well at 1 second intervals, and the height of each fluorescence peak is compared to the height of the fluorescence peak induced by 3 nM orexin-A with vehicle in place of antagonist. […] Optimized conditions were achieved by adjustment of pipetting speed and cell splitting regime. The calculated IC50 values may fluctuate depending on the daily cellular assay performance. Fluctuations of this kind are known to those skilled in the art.

Assay [2] deals with human orexin-2 receptor (Homo sapiens (Human), UniProt O43614). The assay can be described thus: Intracellular calcium measurement (FLIPR), CHO cells expressing human orexin-2 receptor, 3 nM orexin-A. The following applies: CHO cells expressing human orexin-2 receptor, FLIPR, 3 nM orexin-A; geometric mean if determined several times; read-out: IC50 OX2. The assay is classed as cell-based. As to the method:
as §1, §2, §3, §4, §5

Setting [3] is: CHO cells expressing human orexin-1 receptor, FLIPR, 3 nM orexin-A, geometric mean if determined several times.

Results on 32 molecules are retold here after US9493446B2, “Orexin receptor antagonists which are [ortho bi-(hetero-)aryl]-[2-(meta bi-(hetero-)aryl)-pyrrolidin-1-yl]-methanone derivatives” (Actelion Pharmaceuticals Ltd, priority 2012, dated 2016).

Like-named read-outs stand apart in the source and are kept apart here.

Sequence of orexin-1 (O43613 whole entry): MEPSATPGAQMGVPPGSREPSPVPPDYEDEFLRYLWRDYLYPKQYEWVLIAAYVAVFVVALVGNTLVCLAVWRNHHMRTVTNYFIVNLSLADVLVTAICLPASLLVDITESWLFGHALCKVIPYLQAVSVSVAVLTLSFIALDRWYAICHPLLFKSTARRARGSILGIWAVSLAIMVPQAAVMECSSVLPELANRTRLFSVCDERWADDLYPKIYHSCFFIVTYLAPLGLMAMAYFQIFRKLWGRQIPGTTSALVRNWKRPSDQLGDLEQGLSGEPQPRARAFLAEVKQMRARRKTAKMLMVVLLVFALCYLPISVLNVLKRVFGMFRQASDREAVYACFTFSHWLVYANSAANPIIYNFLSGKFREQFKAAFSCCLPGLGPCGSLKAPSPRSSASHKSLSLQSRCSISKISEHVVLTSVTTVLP
Sequence of human orexin-2 receptor (O43614 whole entry): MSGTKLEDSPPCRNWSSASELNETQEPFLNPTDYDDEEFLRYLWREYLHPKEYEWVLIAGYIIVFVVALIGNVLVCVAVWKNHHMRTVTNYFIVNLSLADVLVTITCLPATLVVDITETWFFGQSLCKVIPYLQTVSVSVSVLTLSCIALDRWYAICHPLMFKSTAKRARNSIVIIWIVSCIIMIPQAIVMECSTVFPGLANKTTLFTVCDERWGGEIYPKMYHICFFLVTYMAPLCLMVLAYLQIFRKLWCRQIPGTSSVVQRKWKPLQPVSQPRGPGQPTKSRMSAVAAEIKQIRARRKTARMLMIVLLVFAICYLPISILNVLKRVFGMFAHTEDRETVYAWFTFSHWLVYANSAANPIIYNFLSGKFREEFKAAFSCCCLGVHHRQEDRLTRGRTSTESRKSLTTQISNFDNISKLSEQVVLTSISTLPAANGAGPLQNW

As to `O=C(c1cc(F)ccc1-n1nccn1)N1CCC[C@H]1c1nc(-c2ccccc2OC(F)(F)F)no1` [compound 155, (5-Fluoro-2-[1,2,3]triazol-2-yl-phenyl)-{(S)-2-[3-(2-trifluoromethoxy-phenyl)-[1,2,4]oxadiazol-5-yl]-pyrrolidin-1-yl}-methanone], the values for the IC50 in assay [1] (setting [3]) and in assay [2] were 174 nM and 43 nM, respectively.
The corresponding values for `CC(=O)n1cc(-c2noc([C@@H]3CCCN3C(=O)c3cc(C)ccc3-n3nccn3)n2)c2ccccc21` [Example 85, 1-(3-{5-[(S)-1-(5-Methyl-2-[1,2,3]triazol-2-yl-benzoyl)-pyrrolidin-2-yl]-[1,2,4]oxadiazol-3-yl}-indol-1-yl)-ethanone] are 28 nM and 23 nM.
As to `Cc1c(Cl)cccc1-c1noc([C@@H]2CCCN2C(=O)c2ccc(C(F)(F)F)cc2-n2nccn2)n1` [compound 122], the IC50 (commonly the concentration that inhibits the measured activity by half) in assay [1] was found to be 933 nM; in assay [2] it was 221 nM.
For `COc1cc(C(=O)N2CCC[C@H]2c2cc(-c3cccc(Cl)c3C)on2)c(-n2nccn2)cc1C` [compound 433], the figures for the IC50 in assay [1] (setting [3]) and in assay [2] were 19 nM and 1 nM, respectively.
Turning to `COc1cc(C(=O)N2CCC[C@H]2c2noc(-c3cccc(Cl)c3C)n2)c(-n2nccn2)cc1F` [compound 322], the concentration for half-maximal inhibition (IC50) was determined as 158 nM in assay [1] (setting [3]) and 6 nM in assay [2].
Consider `COc1ccccc1-c1noc([C@@H]2CCCN2C(=O)c2cc(Cl)ccc2-n2nccn2)n1` [compound 228], for which the half-inhibitory concentration (IC50) in assay [1] amounted to 272 nM; in assay [2] it was 134 nM.
On to `Cc1ccc(C(=O)N2CCC[C@@]2(C)c2nnc(-c3cccc(Cl)c3C)[nH]2)c(-n2nccn2)c1` [compound 551], for which the IC50 in assay [1] (setting [3]) was 43 nM; in assay [2] it was 24 nM.
`COc1cc(-c2noc([C@@H]3CCCN3C(=O)c3cc(C)ccc3-n3nccn3)n2)cc(C)n1` [compound 66, {(S)-2-[3-(2-Methoxy-6-methyl-pyridin-4-yl)-[1,2,4]oxadiazol-5-yl]-pyrrolidin-1-yl}-(5-methyl-2-[1,2,3]triazol-2-yl-phenyl)-methanone]: the values for the IC50 in assay [1] (setting [3]) and in assay [2] were 302 nM and 155 nM, respectively.
Regarding `Cc1noc(-c2ccccc2C(=O)N2CCC[C@H]2c2nc(-c3ccccc3OC(F)(F)F)no2)n1` [compound 134], the IC50 in assay [1] (setting [3]) was found to be 274 nM; in assay [2], 219 nM.
`Cc1ccc(-n2nccn2)c(C(=O)N2CCC[C@H]2c2nc(-c3cccnc3Cl)no2)c1` [compound 28]: the IC50 in assay [1] is 2610 nM; in assay [2], 33 nM.
For the molecule `CCOc1ccccc1-c1noc([C@@H]2CCCN2C(=O)c2cc(OC)c(C)cc2-n2nccn2)n1` [compound 258, {(S)-2-[3-(2-Ethoxy-phenyl)-[1,2,4]oxadiazol-5-yl]-pyrrolidin-1-yl}-(5-methoxy-4-methyl-2-[1,2,3]triazol-2-yl-phenyl)-methanone], the IC50 in assay [1] (setting [3]) was 27 nM; in assay [2], 4 nM.
As for `Cc1c(F)cccc1-c1noc([C@@H]2CCCN2C(=O)c2cc(Cl)ccc2-n2nccn2)n1` [compound 245], the results for the IC50 in assay [1] and in assay [2] were 262 nM and 21 nM, respectively.
On to `COc1cc(C(=O)N2CCC[C@H]2c2noc(-c3cccc(F)c3OC)n2)c(-n2nccn2)cc1F` [compound 373, {(S)-2-[5-(3-Fluoro-2-methoxy-phenyl)-[1,2,4]oxadiazol-3-yl]-pyrrolidin-1-yl}-(4-fluoro-5-methoxy-2-[1,2,3]triazol-2-yl-phenyl)-methanone], for which the IC50 in assay [1] (setting [3]) worked out at 212 nM; in assay [2] it was 5 nM.
With `COc1ccccc1-c1nnc([C@@H]2CCCN2C(=O)c2cc(C)c(C)cc2-n2nccn2)[nH]1` [compound 466, (4,5-Dimethyl-2-[1,2,3]triazol-2-yl-phenyl)-{(S)-2-[5-(2-methoxy-phenyl)-4H-[1,2,4]triazol-3-yl]-pyrrolidin-1-yl}-methanone], the IC50 was 26 nM in assay [1] (setting [3]) and 69 nM in assay [2].
Taken in the same sequence, the figures for `Cc1nc(C(=O)N2CCC[C@H]2c2nc(-c3cccc(Cl)c3C)no2)c(-c2ccc(F)cc2)s1` [compound 125] were 353 nM and 80 nM.
Take `COc1cc(C(=O)N2CCC[C@H]2c2noc(-c3ccccc3OC(F)(F)F)n2)c(-n2nccn2)cc1Cl` [compound 375]: the 50% inhibitory concentration (IC50) was determined as 67 nM in assay [1] (setting [3]) and 6 nM in assay [2].
Regarding `Cc1ccc(-n2nccn2)c(C(=O)N2CCC[C@H]2c2ncc(-c3cccc(Cl)c3)[nH]2)c1` [compound 523], the IC50 amounted to 428 nM in assay [1] (setting [3]) and 103 nM in assay [2].
Turning to `Cc1cc(C(=O)N2CCC[C@H]2c2nnc(-c3cccc(Cl)c3C)o2)c(-n2nccn2)cc1C` [compound 447], the IC50 in assay [1] (setting [3]) came out at 30 nM; in assay [2] it was 5 nM.
Turning to `Cc1ccc(-n2nccn2)c(C(=O)N2CCC[C@@]2(C)c2nc(-c3cccc(Cl)c3C)no2)c1` [Example 541, {(S)-2-[3-(3-Chloro-2-methyl-phenyl)-[1,2,4]oxadiazol-5-yl]-2-methyl-pyrrolidin-1-yl}-(5-methyl-2-[1,2,3]triazol-2-yl-phenyl)-methanone], the values for the IC50 in assay [1] (setting [3]) and in assay [2] were 104 nM and 114 nM, respectively.
In the case of `Cc1ccc(C(=O)N2CCC[C@@]2(C)c2nnc(-c3cccc(Cl)c3C)[nH]2)c(-c2ccccc2)c1` [compound 557], the IC50 came out at 292 nM in assay [1] (setting [3]) and 224 nM in assay [2].
As for `Cc1ccc(-n2nccn2)c(C(=O)N2CCC[C@H]2c2nc(-c3cccc(C)c3C)no2)c1` [compound 13, {(S)-2-[3-(2,3-Dimethyl-phenyl)-[1,2,4]oxadiazol-5-yl]-pyrrolidin-1-yl}-(5-methyl-2-[1,2,3]triazol-2-yl-phenyl)-methanone], the results for the IC50 in assay [1] (setting [3]) and in assay [2] were 70 nM and 13 nM, respectively.
Taken in the same sequence, the figures for `Cc1ccc(-n2nccn2)c(C(=O)N2CCC[C@H]2c2nc(-c3cccc4c3ccn4C)no2)c1` [compound 74, {(S)-2-[3-(1-Methyl-1H-indol-4-yl)-[1,2,4]oxadiazol-5-yl]-pyrrolidin-1-yl}-(5-methyl-2-[1,2,3]triazol-2-yl-phenyl)-methanone] were 254 nM and 6 nM.
As to `Cc1cc(-n2nccn2)c(C(=O)N2CCC[C@H]2c2noc(-c3ccccc3OC(F)(F)F)n2)cc1Cl` [compound 365], the figures for the concentration for half-maximal inhibition (IC50) in assay [1] (setting [3]) and in assay [2] were 13 nM and 6 nM, respectively.
Take `CCOc1ncccc1-c1noc([C@@H]2CCCN2C(=O)c2cc(OC)c(Cl)cc2-n2nccn2)n1` [compound 284]: the IC50 in assay [1] was found to be 32 nM; in assay [2], 5 nM.
`COc1ccccc1-c1noc([C@@H]2CCCN2C(=O)c2ccc(C)cc2-n2nccn2)n1` [compound 229, {(S)-2-[3-(2-Methoxy-phenyl)-[1,2,4]oxadiazol-5-yl]-pyrrolidin-1-yl}-(4-methyl-2-[1,2,3]triazol-2-yl-phenyl)-methanone]: the IC50 in assay [1] (setting [3]) worked out at 163 nM; in assay [2] it was 240 nM.
Turning to `Cc1nc(C(=O)N2CCC[C@H]2c2nc(-c3cccc(Cl)c3C)no2)c(-c2cccc(F)c2)s1` [compound 123], the IC50 amounted to 133 nM in assay [1] (setting [3]) and 111 nM in assay [2].
Consider `COc1cc(C(=O)N2CCC[C@H]2c2noc(-c3cc(C)ccc3OC)n2)c(-n2nccn2)cc1Cl` [compound 350], for which the values for the IC50 in assay [1] (setting [3]) and in assay [2] were 36 nM and 2 nM, respectively.
With “{(S)-2-[3-(3-Chloro-2-methyl-phenyl)-[1,2,4]oxadiazol-5-yl]-pyrrolidin-1-yl}-[3-(2-chloro-phenyl)-5-methyl-isoxazol-4-yl]-methanone [Reference compound 7, reference compound]”, in assay [2], the IC50 came out at 37 nM.
As to `Cc1ccc(C(=O)N2CCC[C@H]2c2cnc(-c3ccccc3)[nH]2)c(-n2nccn2)c1` [compound 520, (4-Methyl-2-[1,2,3]triazol-2-yl-phenyl)-[(S)-2-(2-phenyl-3H-imidazol-4-yl)-pyrrolidin-1-yl]-methanone], in assay [1] (setting [3]), the IC50 was 650 nM.
For the molecule `CCOc1c(F)cccc1-c1nc([C@@H]2CCCN2C(=O)c2cc(C)c(C)cc2-n2nccn2)no1` [compound 324, (4,5-Dimethyl-2-[1,2,3]triazol-2-yl-phenyl)-{(S)-2-[5-(2-ethoxy-3-fluoro-phenyl)-[1,2,4]oxadiazol-3-yl]-pyrrolidin-1-yl}-methanone], in assay [2], the IC50 worked out at 1 nM.
Take `CCOc1ncccc1-c1nc([C@@H]2CCCN2C(=O)c2cc(Cl)c(C)cc2-n2nccn2)no1` [compound 380]: the concentration for half-maximal inhibition (IC50) in assay [2] came to 1 nM.
Still for that read-out and setting: then `COc1c(F)cccc1-c1nc([C@@H]2CCCN2C(=O)c2cc(C)c(C)cc2-n2nccn2)no1` [compound 340, (4,5-Dimethyl-2-[1,2,3]triazol-2-yl-phenyl)-{(S)-2-[5-(3-fluoro-2-methoxy-phenyl)-[1,2,4]oxadiazol-3-yl]-pyrrolidin-1-yl}-methanone], with 0.4 nM.
